Data as given in PubChem BioAssay AID298 (DTP/NCI, 2004).
Several values for one entry are separate records, joined by “and”; a condition that tells them apart may be missing. Equal values may be shown once. Inconclusive results are not listed.

Test system: MX-1 breast xenograft, intrarenal, nude mice, tumor weight
Assay: NCI In Vivo Anticancer Drug Screen. Data for tumor model Human Mammary Carcinoma MX-1 Xenograft (intrarenal inoculation) in NU/NU BALB/C (nude) mice
Conditions: endpoint: mean tumor weight change, higher = larger tumour
Summary of the method: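 Efficacy in vivo: tumor measurement or survival of treated animals divided by that of vehicle-dosed controls.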

[1] = dose: 75.0 mg/kg/injection, schedule: Q04DX003 (ip), vehicle: Klucel (hydroxypropylcellulose) (HPC)
[2] = dose: 150.0 mg/kg/injection, schedule: Q04DX003 (ip), vehicle: DMSO
[3] = dose: 300.0 mg/kg/injection, schedule: Q04DX003 (ip), vehicle: DMSO

Question: For `CN=C(NC)c1ccc(NC(=O)/C=C\c2ccc(/C=C/C(=O)Nc3ccc(C(=NC)NC)cc3)cc2)cc1`, which T/C (dose: 6.25 mg/kg/injection, schedule: Q04DX003 (ip), vehicle: Klucel (hydroxypropylcellulose) (HPC)) is on record?
Answer: The T/C was 89 % of control.

Question: Which results are given for `O=C(CCCCCCC(=O)ON1C(=O)CCC1=O)ON1C(=O)CCC1=O`?
Answer: T/C (dose: 300.0 mg/kg/injection, schedule: Q04DX003 (sc), vehicle: saline with Tween-80): 110 % of control; T/C (dose: 600.0 mg/kg/injection, schedule: Q04DX003 (sc), vehicle: saline with Tween-80): 96 % of control; T/C (dose: 1200.0 mg/kg/injection, schedule: Q04DX003 (sc), vehicle: saline with Tween-80): 81 % of control; T/C (dose: 2400.0 mg/kg/injection, schedule: Q04DX003 (sc), vehicle: saline with Tween-80): 85 % of control

Question: For `COc1cc2c(c3c1c(=O)c1cccc(F)c1n3C)C=CC(C)(C)O2`, which T/C [1] is on record?
Answer: The T/C was 46 % of control.

Question: `COc1cc(NCc2ccc3nc(N)nc(N)c3c2C)cc(OC)c1OC` was tested. Which T/C (dose: 15.0 mg/kg/injection, schedule: Q04DX003 (ip), vehicle: Klucel (hydroxypropylcellulose) (HPC)) did it give?
Answer: The T/C was 96 % of control and 101 % of control.

Question: And the T/C (dose: 30.0 mg/kg/injection, schedule: Q04DX003 (ip), vehicle: Klucel (hydroxypropylcellulose) (HPC))?
Answer: The T/C was 81 % of control and 95 % of control.

Question: What about the T/C (dose: 120.0 mg/kg/injection, schedule: Q04DX003 (ip), vehicle: Klucel (hydroxypropylcellulose) (HPC)) of the same compound?
Answer: Its T/C is 56 % of control and 71 % of control.

Question: For `O=C1CN(c2ccccc2)C(=O)C1C(=O)Nc1ccc(Cl)c(Cl)c1` (stereo not given), which T/C (dose: 120.0 mg/kg/injection, schedule: Q04DX003 (ip), vehicle: saline with Tween-80) is on record?
Answer: The T/C was 70 % of control.

Question: And the T/C (dose: 240.0 mg/kg/injection, schedule: Q04DX003 (ip), vehicle: saline with Tween-80)?
Answer: Its T/C is 32 % of control.

Question: For `C/C(=N\NC(=S)N1CC2CCC(CC2)C1)c1nccs1`, which T/C (dose: 75.0 mg/kg/injection, schedule: Q04DX003 (ip), vehicle: saline with Tween-80) is on record?
Answer: Its T/C is 78 % of control.

Question: `CN(CO)c1nc(N(C)CO)nc(N(C)CO)n1` was tested. Which T/C (dose: 6.25 mg/kg/injection, schedule: Q01DX010 (sc), vehicle: saline) did it give?
Answer: Its T/C is 86 % of control.

Question: And the T/C (dose: 12.5 mg/kg/injection, schedule: Q01DX010 (sc), vehicle: saline)?
Answer: The T/C was 30 % of control.

Question: What about the T/C (dose: 25.0 mg/kg/injection, schedule: Q01DX010 (sc), vehicle: saline) of the same compound?
Answer: Its T/C is 2 % of control.

Question: And the T/C (dose: 100.0 mg/kg/injection, schedule: Q01DX010 (sc), vehicle: saline)?
Answer: The T/C was 1 % of control.

Question: What does the source list for `CC(=O)C(=O)O.CC(=O)C(=O)O.[NH-]C1CCCCC1[NH-].[Pt+2]` (stereo not given)?
Answer: T/C (dose: 12.5 mg/kg/injection, schedule: Q04DX003 (sc), vehicle: other): 72 % of control; T/C (dose: 25.0 mg/kg/injection, schedule: Q04DX003 (sc), vehicle: other): 17 % of control; T/C (dose: 50.0 mg/kg/injection, schedule: Q04DX003 (sc), vehicle: other): -78 % of control

Question: What does the source list for `CO[C@H]1C[C@@H]2CC[C@@H](C)[C@@](O)(O2)C(=O)C(=O)N2CCCC[C@H]2C(=O)O[C@H]([C@H](C)C[C@@H]2CC[C@@H](O)[C@H](OC)C2)CC(=O)[C@H](C)C=C(C)[C@@H](O)[C@@H](OC)C(=O)[C@H](C)C[C@H](C)/C=C/C=C/C=C1C`?
Answer: T/C (dose: 100.0 mg/kg/injection, schedule: Q01DX010 (sc), vehicle: saline with Tween-80): 30 % of control; T/C (dose: 200.0 mg/kg/injection, schedule: Q01DX010 (sc), vehicle: saline with Tween-80): 22 % of control; T/C (dose: 400.0 mg/kg/injection, schedule: Q01DX010 (sc), vehicle: saline with Tween-80): 54 % of control; T/C (dose: 800.0 mg/kg/injection, schedule: Q01DX010 (sc), vehicle: saline with Tween-80): 54 % of control

Question: How did the T/C [2] turn out when `COc1ccc(-c2cc(C(=O)Nc3cc(C(F)(F)F)cc(C(F)(F)F)c3)c3ccccc3n2)cc1` was run?
Answer: The T/C was 103 % of control.

Question: What about the T/C [3] of the same compound?
Answer: The T/C was 70 % of control.

Question: What about the T/C (dose: 600.0 mg/kg/injection, schedule: Q04DX003 (ip), vehicle: DMSO) of the same compound?
Answer: Its T/C is 78 % of control.

Question: Which results are given for `CN(C)[C@@H]1C(=O)C(C(N)=O)=C(O)[C@@]2(O)C(=O)C3=C(O)c4c(O)ccc(Cl)c4[C@@](C)(O)[C@H]3C[C@@H]12`?
Answer: T/C (dose: 300.0 mg/kg/injection, schedule: Q04DX003 (sc), vehicle: saline): 155 % of control; T/C (dose: 1200.0 mg/kg/injection, schedule: Q04DX003 (sc), vehicle: saline): 113 % of control; T/C (dose: 2400.0 mg/kg/injection, schedule: Q04DX003 (sc), vehicle: saline): 70 % of control

Question: Which results are given for `Cc1nnc2ncccn12`?
Answer: T/C (dose: 100.0 mg/kg/injection, schedule: Q04DX003 (sc), vehicle: saline): 86 % of control; T/C (dose: 200.0 mg/kg/injection, schedule: Q04DX003 (sc), vehicle: saline): 104 % of control

Question: `CCOC(=O)C1=C(C)O/C(=C/c2cccc(Cl)c2)C1=O` was tested. Which T/C (dose: 150.0 mg/kg/injection, schedule: Q04DX003 (ip), vehicle: saline with Tween-80) did it give?
Answer: Its T/C is 62 % of control.

Question: `CN(Cc1cnc2nc(N)nc(N)c2n1)c1ccc(C(=O)N[C@@H](CCC(=O)O)C(=O)O)cc1` was tested. Which T/C (dose: 3.0 mg/kg/injection, schedule: Q04DX003 (sc), vehicle: sodium bicarbonate) did it give?
Answer: Its T/C is 152 % of control.

Question: What about the T/C (dose: 6.0 mg/kg/injection, schedule: Q04DX003 (sc), vehicle: sodium bicarbonate) of the same compound?
Answer: The T/C was 162 % of control.

Question: What about the T/C (dose: 12.0 mg/kg/injection, schedule: Q04DX003 (sc), vehicle: sodium bicarbonate) of the same compound?
Answer: Its T/C is 112 % of control.

Question: And the T/C (dose: 18.0 mg/kg/injection, schedule: Q04DX003 (ip), vehicle: sodium bicarbonate)?
Answer: Its T/C is 55 % of control.

Question: What about the T/C (dose: 24.0 mg/kg/injection, schedule: Q04DX003 (sc), vehicle: sodium bicarbonate) of the same compound?
Answer: Its T/C is 80 % of control.

Question: Which results are given for `CN1C2C=CC(=O)C1C1C(=O)N(c3ccccc3)C(=O)C12` (stereo not given)?
Answer: T/C (dose: 100.0 mg/kg/injection, schedule: Q04DX003 (ip), vehicle: Klucel (hydroxypropylcellulose) (HPC)): 105 % of control; T/C (dose: 200.0 mg/kg/injection, schedule: Q04DX003 (ip), vehicle: Klucel (hydroxypropylcellulose) (HPC)): 77 % of control

Question: With `CN(C)/N=N/c1nc[nH]c1C(N)=O` as the compound, how does the T/C (dose: 50.0 mg/kg/injection, schedule: Q04DX003 (ip), vehicle: Klucel (hydroxypropylcellulose) (HPC)) read?
Answer: Its T/C is 74 % of control.

Question: And the T/C [1]?
Answer: Its T/C is 87 % of control.

Question: And the T/C (dose: 112.0 mg/kg/injection, schedule: Q04DX003 (ip), vehicle: Klucel (hydroxypropylcellulose) (HPC))?
Answer: Its T/C is 82 % of control.

Question: And the T/C (dose: 200.0 mg/kg/injection, schedule: Q01DX010 (sc), vehicle: Klucel (hydroxypropylcellulose) (HPC))?
Answer: The T/C was 70 % of control.

Question: And the T/C (dose: 400.0 mg/kg/injection, schedule: Q01DX010 (sc), vehicle: Klucel (hydroxypropylcellulose) (HPC))?
Answer: Its T/C is 14 % of control.

Question: Which results are given for `Nc1ccn([C@@H]2C=C(CO)[C@@H](O)[C@H]2O)c(=O)n1`?
Answer: T/C (dose: 0.5 mg/kg/injection, schedule: Q01DX009 (ip), vehicle: saline): 26 % of control; T/C (dose: 2.0 mg/kg/injection, schedule: Q01DX009 (ip), vehicle: saline): 3 % of control

Question: What does the source list for `O=C1C=CN(C2OC(CO)C(O)C2O)C(=O)C1` (stereo not given)?
Answer: T/C (dose: 90.0 mg/kg/injection, schedule: Q01DX009 (ip), vehicle: saline): 65 % of control; T/C (dose: 133.4 mg/kg/injection, schedule: Q01DX009 (ip), vehicle: saline): 98 % of control; T/C (dose: 200.0 mg/kg/injection, schedule: Q01DX009 (ip), vehicle: saline): 89 % of control; T/C (dose: 300.0 mg/kg/injection, schedule: Q01DX009 (ip), vehicle: saline): 36 % of control

Question: Which T/C (dose: 0.5 mg/kg/injection, schedule: Q04DX003 (sc), vehicle: saline with Tween-80) does the source give for `COc1cc2c(c(OC)c1OC)-c1ccc(OC)c(=O)cc1[C@@H](NC(=O)CCl)CC2` here?
Answer: Its T/C is 87 % of control.

Question: What about the T/C (dose: 1.0 mg/kg/injection, schedule: Q04DX003 (sc), vehicle: saline with Tween-80) of the same compound?
Answer: Its T/C is 43 % of control.

Question: And the T/C (dose: 2.0 mg/kg/injection, schedule: Q04DX003 (sc), vehicle: saline with Tween-80)?
Answer: The T/C was 8 % of control.

Question: What about the T/C (dose: 4.0 mg/kg/injection, schedule: Q04DX003 (sc), vehicle: saline with Tween-80) of the same compound?
Answer: The T/C was 1 % of control.

Question: What does the source list for `Cc1nc(N)nc(N)c1N1CCN(c2ccc(C(=O)NC(C(=O)O)C(=O)O)cc2)CC1`?
Answer: T/C (dose: 7.5 mg/kg/injection, schedule: Q04DX003 (ip), vehicle: Klucel + Tween-80): 63 % of control; T/C (dose: 15.0 mg/kg/injection, schedule: Q04DX003 (ip), vehicle: Klucel + Tween-80): 76 % of control; T/C (dose: 30.0 mg/kg/injection, schedule: Q04DX003 (ip), vehicle: Klucel + Tween-80): 76 % of control; T/C (dose: 60.0 mg/kg/injection, schedule: Q04DX003 (ip), vehicle: Klucel + Tween-80): 82 % of control

Question: `COc1c(C=O)c2c(c(OC)c1OC)-c1ccc(OC)c(=O)cc1[C@@H](NC(C)=O)CC2` was tested. Which T/C (dose: 9.37 mg/kg/injection, schedule: Q04DX003 (sc), vehicle: Klucel (hydroxypropylcellulose) (HPC)) did it give?
Answer: The T/C was 62 % of control.

Question: What about the T/C (dose: 18.75 mg/kg/injection, schedule: Q04DX003 (sc), vehicle: Klucel (hydroxypropylcellulose) (HPC)) of the same compound?
Answer: The T/C was 40 % of control.

Question: And the T/C (dose: 37.5 mg/kg/injection, schedule: Q04DX003 (sc), vehicle: Klucel (hydroxypropylcellulose) (HPC))?
Answer: Its T/C is 13 % of control.

Question: `CCN(CC)c1cc(C(=O)O)cc(N(CC)CC)n1` was tested. Which T/C (dose: 50.0 mg/kg/injection, schedule: Q04DX003 (ip), vehicle: other) did it give?
Answer: Its T/C is 155 % of control.

Question: And the T/C (dose: 100.0 mg/kg/injection, schedule: Q04DX003 (ip), vehicle: other)?
Answer: The T/C was 74 % of control.

Question: How did the T/C [2] turn out when `CCCCNc1ccc2nnc(C)n2n1` was run?
Answer: Its T/C is 94 % of control and 108 % of control.

Question: What about the T/C [3] of the same compound?
Answer: Its T/C is 78 % of control and 88 % of control.
